We go through 1 compound from patent publication US20110300067A1, “METHODS FOR INCREASING EFFICACY OF RADIOIMMUNOTHERAPY OF MELANOMA” (priority 2008, published 2011).

In assay [1] the test system is A2058 human melanoma. Nature of the assay: histology of A2058 tumors from DTIC-treated mice (melanin release). Format: in vivo. The following applies: 50 mg/kg IP for 5 days; H&E, iron stain, melanin bleach; FIG. 3.
Description: Combination of chemotherapy and RIT. For combined chemotherapy with dacarbazine and RIT of A2058 melanoma-bearing nude mice, a preliminary experiment was performed which was aimed at determining the tolerability of dacarbazine by tumor-bearing mice and the ability of dacarbazine treatment to release some melanin from the melanoma cells. For this purpose 10 mg/mL dacarbazine in citrate buffer with pH ˜5.5 was prepared by dissolving 100 mg dacarbazine (Sigma) in 9.5 mL citrate buffer, pH 3.9 and 0.5 mL 0.1 M HCl. Five mice with A2058 tumors were treated for 5 days IP with 50 mg/kg dacarbazine (1.1 mg/mouse). Three days after completion of DTIC treatment, two mice were sacrificed, their tumors removed, fixed in ethanol/buffered formalin, cut into 5 μm slices and analyzed histologically for the presence of melanin by staining with hematoxylin and eosin (H&E), iron staining or by melanin bleach. The slides were viewed under 400× magnification in polarized light.
Assay [2] deals with A2058 human melanoma. Nature of the assay: chemotherapy, RIT and combination of chemotherapy and RIT in A2058 melanoma-bearing mice. In kind it is in vivo. The following applies: FIG. 4A. As to the method: Animal model and therapy studies. All animal studies were carried out in accordance with the guidelines of the Institutes for Animal Studies at the Albert Einstein College of Medicine. For RIT studies, 6-12 week-old female nude mice were implanted subcutaneously with 8×10^6 A2058 human melanoma cells into the right flank and used for therapeutic experiments 12 days after tumor volumes were approximately 0.15 cm^3 (0.02-0.4 cm^3).
For the experiment comparing the efficacy of chemotherapy, RIT and combination of chemotherapy, and RIT in A2058 melanoma-bearing mice, mice were inoculated with A2058 melanoma cells, randomized into groups of five after tumor volumes reached 0.15 cm^3 (0.02-0.4 cm^3). On Day 0 the treatment of groups #1 and 2 with 50 mg/kg DTIC for 5 consecutive days IP was initiated. Mice in group #3 received a single IP injection of 1 mCi ^188Re-6D2 mAb on Day 0. Twenty-four hrs after completion of pre-treatment with DTIC (Day 6), mice in group #2 received single IP dose of 1 mCi ^188Re-6D2 mAb. Group #4 was given PBS IP on Day 0.
Statistical analysis. The Wilcoxon rank sum test was used to compare tumor sizes between different treatment groups in therapy studies. Differences were considered statistically significant when P values were <0.05.

The test system of assay [3] is A2058 tumor metabolism. Nature of the assay: ^18F-FDG microPET of RIT or chemotherapy treated melanoma-bearing mice. In kind it is in vivo. The following applies: re-imaged one week after initial PET scan; FIG. 5. The protocol:
MicroPositron Emission Tomography (microPET) of RIT or chemotherapy treated melanoma-bearing mice. To understand the effects of RIT with melanin-binding mAbs and chemotherapy with DTIC on A2058 tumor metabolism, microPET was performed of mice treated with DTIC or with RIT. For this purpose 6-7 mm in diameter tumor-bearing mice were fasted for 3 hrs, then placed in an anesthesia chamber with 1.5% isoflurane-oxygen mixture. Anesthesia continued through the IV injection, during a 1 hr uptake and through the imaging portion of the procedure. Each mouse was placed on a heating pad before scanning to maintain normal body temperature. Mice were injected via tail-vein with 11.1 to 14.8 MBq (300 to 400 μCi) ^18F-FDG and 1 hr later imaged in an R4 microPET scanner manufactured by CTI Concorde. The Full Width at Half Maximum for the R4 is about 2.1 mm with a field of view of 120 mm and a depth of field of 78 mm. Images were acquired for 10 minutes with a lower level discrimination of 350 keV and upper level discrimination of 650 keV. The timing window was set to 6 nsec. All of the default settings were selected during the histogram process. […] Data corrected for dead time counting losses, arc correction, random coincidences and the measured uniformity of detector responses (i.e. normalized) but not corrected for attenuation or scatter. […]

The subject of assay [4] is metastatic melanoma. The settings on record: patients with metastatic melanoma; Sun and Schuchter, 2001; cited from earlier work.
The subject of assay [5] is mouse melanoma models. The following applies: 50 mg/kg/day×5 days; Fodstad et al. 1980; cited from earlier work.

For `CN(C)N=Nc1[nH]cnc1C(N)=O` [DTIC, 5-(3,3-dimethyl-1-triazeno)imidazole-4-carboxamide], the “release of melanin from tumor cells (histology)” value in assay [1] is “releases some melanin from the cells”. Besides, the “tumor growth from day 15” value in assay [2] (compared with combined treatment or RIT alone, p=0.02) is “started to grow much faster”. The “tumor growth up to Day 15” value in assay [2] (early time points post-therapy, compared with RIT alone) was “more effective in impairing tumor growth than RIT alone”. Also, the “^18F-FDG uptake in tumors” value in assay [3] was “became less diffuse and concentrated in the center of the tumor”. The response rate in assay [4] is given as 15% to 20%. In addition, the tumor growth result in assay [5] was “effectively slowed tumor growth”.
